{"source": "patent US20160279069A1", "about": "“MATERIALS AND METHODS FOR SUSTAINED RELEASE OF ACTIVE COMPOUNDS” (The Florida International University Board of Trustees, priority 2015, published 2016)", "key": {"[1]": {"tested_on": "HIV-1Ba-L infected primary human astrocytes (HA)", "assay": "p24 antigen ELISA in HIV-infected primary human astrocytes (latency breaking and antiviral efficacy)", "type": "cell-based", "details": "tested about 1 to about 10 μM, solution phase", "experimental": "FIG. 11 represents an evaluation of the antiviral efficacy of an exemplary embodiment of the drug delivery system in suppressing p24 antigen levels in HIV-infected human astrocytes. The drug delivery system was added on the second day after HIV infection (HIV-1BaL) in equimolar concentration. Supernatants were evaluated on the third, fifth, and seventh day postinfection for p24 levels and were checked for its efficacy, along with its percentage cell viability, using MTT assay. […] Viral p24 protein in the culture supernatant was measured by enzyme-linked immunosorbent assay. Error bars indicate the standard deviation of triplicate data points and are representative of at least three experiments. Dotted lines represent the percentage cell viability; each point represents treatment period. […] NS=non-significant. MTT=3-(4,5-dimethylthiazol-2-yl)-2,5-diphenyltetrazolium bromide.\nLatency-breaking and antiviral efficacy of the formulation was determined via quantification of p24 antigen in a primary human astrocytes (HA) infection model (Nair, M. et al., Nat Commun. 2013; 4:1707). […] The sustained-release ability of the finally assembled formulation ([MNP+tenofovir]2+vorinostat) was also evaluated over a treatment period of 5 days in the HA model. […]"}, "human astrocytes (HAs)": {"tested_on": "human astrocytes (HAs)", "experimental": "In vitro cytotoxicity was assessed by MTT cell viability assay, using a CellTiter 96 Aqueous one-solution cell proliferation assay kit (catalog G3580; Promega, USA) (Nair, M. et al., Nat Commun. 2013; 4:1707). HAs were seeded in 96-well tissue plates at a density of 5×10^3 cells per well. […] Finally, approximately 100 μL stop solution (about 20% sodium dodecyl sulfate in about 50% dimethyl formamide) was added into each well, and absorbance was recorded at 550 nm by a microplate reader (Synergy HT; BioTek Instruments, Inc.)."}}, "data": [{"smiles": "O=C(CCCCCCC(=O)Nc1ccccc1)NO", "note": "[vorinostat]", "values": [{"measurement": "vorinostat concentration giving maximum p24 value (latency reversal)", "setting": "[1]", "value": 1, "unit": "µM"}, {"measurement": "cytotoxicity of optimized vorinostat dose", "setting": "human astrocytes (HAs)", "value": "nontoxic"}]}]}
